These results are taken from ChEMBL document CHEMBL1932950, “Inhibitory constituents of Nardostachys chinensis on nitric oxide production in RAW 264.7 macrophages” (Bioorg Med Chem Lett, 2012).

pIC50: −log10 of the molar value. Where only a bound is given, the exact number is not on record here.

In data set [1] the test system is RAW264.7. Kind of data set: Antiinflammatory activity in mouse RAW264.7 cells assessed as inhibition of LPS-induced NO production after 24 hrs by Griess method. To be noted: for pIC50: RAW264.7, 24 h. It is filed as functional, cell-based.
Data set [2] relates to RAW264.7. Briefly: Cytotoxicity against mouse RAW264.7 cells by CCK assay. It is filed as cell-based.

Consider `C[C@@H]1CCC=C2C(=O)C=C[C@@H](O)[C@]21C`, for which, in the data set with RAW264.7 [1], the inhibition result was “Dose-dependent effect” and the pIC50 (commonly −log10 of the IC50, conventionally taken in molar units) is 5.08. In addition, the Activity result in the data set with RAW264.7 [2] is “Non-toxic”.

For `C[C@@H]1CCC=C2C(=O)CC(=O)C[C@]21C`, the pIC50 with RAW264.7 [1] was < 4.30. In the data set on RAW264.7 [2], the Activity entry is on record as “Non-toxic”.

On to `COc1cc([C@H]2OC[C@H]3[C@@H]2CO[C@@H]3c2ccc(O)c(OC)c2)ccc1O` [(+)-PINORESINOL], for which the Activity entry in the data set on RAW264.7 [2] is recorded as “Non-toxic”.

Regarding `COc1cc([C@@H]2OC[C@@H]3[C@H]2CO[C@H]3c2ccc(O)c(OC)c2)ccc1O` [(+)-PINORESINOL], the pIC50 in the data set with RAW264.7 [1] was 4.47.

`O=C(O)/C=C/c1ccc(O)cc1` [COUMARIC ACID]: the pIC50 with RAW264.7 [1] was < 4.30. In the data set with RAW264.7 [2], the Activity result is “Non-toxic”.

Take `C[C@@H]1CC(=O)C=C2[C@H](O)C[C@@H]3[C@@H](C3(C)C)[C@]21C` [DEBILON]: the pIC50 with RAW264.7 [1] was < 4.30. The Activity result with RAW264.7 [2] is on record as “Non-toxic”.

`COc1cc(C2OC2CO)ccc1O` (centres undefined) [EPOXYCONIFERYL ALCOHOL]: the pIC50 in the data set with RAW264.7 [1] is < 4.30. Moreover, the Activity entry with RAW264.7 [2] is given as “Non-toxic”.

As for `COc1ccc(/C=C/C(=O)O)cc1O` [ISOFERULIC ACID], the pIC50 in the data set on RAW264.7 [1] is < 4.30. For the same molecule, the Activity entry in the data set with RAW264.7 [2] was “Non-toxic”.

For the molecule `C[C@@H]1C[C@@H](O)C=C2C(=O)C[C@H]3OOC(C)(C)[C@H]3[C@]21C` [KANSHONE B], in the data set on RAW264.7 [1], the inhibition entry is “Dose-dependent effect” and the pIC50 was 4.94. For the same molecule, the Activity result in the data set with RAW264.7 [2] is recorded as “Non-toxic”.

Consider `C[C@@H]1C[C@H](O)C=C2C(=O)C=C[C@@H](O)[C@]21C` [NARCHINOL B], for which, in the data set on RAW264.7 [1], the inhibition result was “Dose-dependent effect” and the pIC50 was 5.34. The Activity result in the data set on RAW264.7 [2] is reported as “Non-toxic”.

In the case of `C[C@@H]1C[C@@H](O)C=C2C(=O)C=C[C@@H](O)[C@]21C` [NARCHINOL C], in the data set on RAW264.7 [1], the inhibition entry was “Dose-dependent effect” and the pIC50 was 4.67. For the same molecule, the Activity result in the data set on RAW264.7 [2] is on record as “Non-toxic”.

`C[C@@H]1CCC=C2C(=O)C[C@H]3OOC(C)(C)[C@H]3[C@]21C` [NARDOSINONE]: in the data set on RAW264.7 [1], the inhibition entry is “Dose-dependent effect” and the pIC50 is 4.95. Further, the Activity entry in the data set on RAW264.7 [2] is listed as “Non-toxic”.

Consider `C[C@H]1[C@H](C)CC[C@]2(C(=O)O)CC[C@]3(C)C(=CC[C@@H]4[C@@]5(C)CC[C@H](O)C(C)(C)[C@@H]5CC[C@]43C)[C@H]12` [URSOLIC ACID], for which the pIC50 in the data set with RAW264.7 [1] was < 4.30. The Activity entry in the data set with RAW264.7 [2] was “Non-toxic”.
